Assay results from patent US20040198743A1 (Schering Corporation, priority 2003, published 2004).
pKi: −log10 of the molar value. Where “and” joins values, the source holds several entries; their conditions need not be identical. Equal values may be shown once.

Legend:
[1] = system: cutaneous microvascular permeability produced by compound 48/80; experiment: Cutaneous microvascular permeability (Evans blue extravasation) elicited by intradermal compound 48/80; format: in vivo, guinea pig; settings: for effect on baseline Evans blue leakage (dye leakage due to i.d. saline administration): CTM 1.0 mg/kg, THIO 1.0 mg/kg, CLOB 0.3 mg/kg, i.v.; for % Inhibition of Compound 48/80 Skin Responses: treatment i.v. 10 minutes before, each drug 1 mg/kg in Table 3, mean ± SEM; for effect of H3 antagonist alone on cutaneous permeability elicited by compound 48/80: THIO 1.0 mg/kg i.v., CLOB 0.3 mg/kg i.v., given alone
[2] = target: T1, Histamine Receptor H3 (Homo sapiens, UniProt Q9Y5N1); experiment: Membrane binding assay, [3H]-N'-methylhistamine for H3 binding
T1 construct: expressed in transfected cells; host or cells: HEK293
Description: (§1) Materials. Rat and guinea-pig brains were obtained frozen from Rockland Immunochemicals (Gilbertsville, Pa.). Cell lines expressing recombinant human receptors were generated by using standard transfection techniques. The following radioligands were obtained from Dupont NEN (Boston, Mass.): [^3H]-pyrilamine, 23 Ci/mmol for H 1 binding and [^3H]-N′-methylhistamine, 82 Ci/mmol for H3 binding.
(§2) Methods. Recombinant cell lines (i.e., human H1—CHO cells and human H3-HEK293) were cultured in Dulbecco's modified Eagle's medium/10% fetal bovine serum supplemented with 2 mM glutamine, penicillin (100 U/ml), and streptomycin (100 μg/ml) in a humidified 5% CO2 atmosphere at 37° C. Selection was maintained with 0.5 mg geneticin/ml. Cells were harvested for membrane preparation by aspirating media, replacing it with Hanks' balanced salt solution/5 mM EDTA, and incubating flasks for 10 minutes at 37° C. Cells were pelleted by centrifugation at 1000×g for ten minutes at 4° C.
(§3) Membrane preparation. Membranes were prepared by disrupting cells or tissue in at least ten volumes of ice-cold 50 mM Tris-HCl, pH 7.5 at 25° C., with a Polytron. Homogenates were centrifuged ten minutes at 1000×g and the supernatants were then centrifuged for ten minutes at 50,000×g. Pellets from this centrifugation step were resuspended with a Polytron, a sample was taken for protein determination (BCA; Pierce; Rockford, Ill.), and the resuspension was again centrifuged at 50,000×g. Brain membranes were stored as pellets, cell membranes as suspensions of 1 mg protein/ml Tris buffer at −20° C.
(§4) Binding assays. […] Nonspecific binding was determined in the presence of 10^−6 M chlorpheniramine for H1 binding or 10^−6 M clobenpropit for H3 binding. Assay mixtures were incubated for 30 minutes at 30° C. in polypropylene, 96-well, deep-well plates then filtered through 0.3% polyethylenimine-soaked GF/B filters. These were washed three times with 1.2 ml of Tris buffer, dried in a microwave oven, impregnated with Meltilex wax scintillant and counted at 40% efficiency in a Betaplate scintillation counter (Wallac). IC50 values were determined by interpolation or by nonlinear, least-squares, curve-fitting with the Prism program (GraphPad Software). Ki values were determined in the manner of Cheng and prusoff (Cheng, et al., (1973) Biochem. Pharm. 22:3099-3108).

[3] = target: T2, Histamine Receptor H1 (Homo sapiens, UniProt P35367); experiment: Membrane binding assay, [3H]-pyrilamine for H1 binding
T2 construct: expressed in transfected cells; host or cells: CHO
Description: as §1, §2, §3, §4

T1 sequence (Q9Y5N1 whole entry): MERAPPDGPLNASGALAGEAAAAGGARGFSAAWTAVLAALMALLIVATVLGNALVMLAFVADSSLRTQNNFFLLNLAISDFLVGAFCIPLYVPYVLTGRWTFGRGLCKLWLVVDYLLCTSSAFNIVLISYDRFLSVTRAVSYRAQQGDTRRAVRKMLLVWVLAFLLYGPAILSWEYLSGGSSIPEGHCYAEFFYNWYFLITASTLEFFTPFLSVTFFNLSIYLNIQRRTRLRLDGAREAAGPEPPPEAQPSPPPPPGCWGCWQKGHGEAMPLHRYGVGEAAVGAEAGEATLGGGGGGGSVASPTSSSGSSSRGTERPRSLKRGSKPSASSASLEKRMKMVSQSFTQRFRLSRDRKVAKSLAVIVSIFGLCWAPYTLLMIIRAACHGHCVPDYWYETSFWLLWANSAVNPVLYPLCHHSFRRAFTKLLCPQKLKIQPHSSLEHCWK
T2 sequence (P35367 whole entry): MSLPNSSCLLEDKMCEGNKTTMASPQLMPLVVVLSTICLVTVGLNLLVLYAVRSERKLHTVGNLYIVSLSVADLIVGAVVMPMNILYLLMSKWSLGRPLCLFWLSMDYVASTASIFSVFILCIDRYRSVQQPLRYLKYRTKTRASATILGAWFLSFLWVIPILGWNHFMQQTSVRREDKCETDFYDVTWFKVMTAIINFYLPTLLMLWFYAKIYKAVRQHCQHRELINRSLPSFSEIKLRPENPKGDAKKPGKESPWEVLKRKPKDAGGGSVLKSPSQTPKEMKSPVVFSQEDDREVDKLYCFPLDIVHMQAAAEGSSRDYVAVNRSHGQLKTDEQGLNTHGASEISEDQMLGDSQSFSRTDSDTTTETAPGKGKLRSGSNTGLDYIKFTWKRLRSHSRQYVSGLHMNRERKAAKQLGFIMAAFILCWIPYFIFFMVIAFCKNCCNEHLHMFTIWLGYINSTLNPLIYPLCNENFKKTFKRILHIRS

Structure (SMILES)	pKi [2]	pKi [3]	further results
CN(C)CCC(c1ccc(Cl)cc1)c1ccccn1 (stereo not shown) [CTM, chlorpheniramine]			effect on baseline Evans blue leakage (dye leakage due to i.d. saline administration) [1]: Neither CTM (1.0 mg/kg, i.v.), THIO (1.0 mg/kg, i.v.) nor CLOB (0.3 mg/kg, i.v.) had any effect; % Inhibition of Compound 48/80 Skin Responses ([1]; cpd 48/80 0.0003% i.d.): 17%±4% and 17.3 ± 3.6%; % Inhibition of Compound 48/80 Skin Responses ([1]; cpd 48/80 0.001% i.d.): 31%±4% and 31.5 ± 3.7 %; % Inhibition of Compound 48/80 Skin Responses ([1]; cpd 48/80 0.003% i.d.): 32%±4% and 31.8 ± 3.8 %; % Inhibition of Compound 48/80 Skin Responses ([1]; cpd 48/80 0.01% i.d.): 37%±4% and 36.7 ± 3.8 %
NC(=NCc1ccc(Cl)cc1)SCCCc1cnc[nH]1 [Clobenpropit, clobenpropit]			effect on baseline Evans blue leakage (dye leakage due to i.d. saline administration) [1]: Neither CTM (1.0 mg/kg, i.v.), THIO (1.0 mg/kg, i.v.) nor CLOB (0.3 mg/kg, i.v.) had any effect; effect of H3 antagonist alone on cutaneous permeability elicited by compound 48/80 ([1]; listed as CLOB): no observable effect; effect of H3 antagonist alone on cutaneous permeability elicited by compound 48/80 ([1]; listed as clobenpropit): does not alter
O=C(c1ccccn1)N1CCC(Cc2c[nH]cn2)CC1 [Formula 18]	8.70		
CC(C)(C)CCC#C[C@@H]1C[C@H]1c1c[nH]cn1 [Formula 19]	8.52		
O=C(CCN1CCC(Cc2c[nH]cn2)CC1)Nc1cccc(Cl)c1 [Formula 20]	9.10	6.48	
O=S(=O)(c1ccc(Cl)cc1)N1CCC(CCc2c[nH]cn2)C1 (stereo not shown) [Formula 21]	8.22	6.18	
c1nc(CC2CCN(CCCOc3ccc(CN4CCCCC4)cc3)CC2)c[nH]1 [Formula 22]	8.52	7.54	
O=C(NCc1ccc(Cc2c[nH]cn2)cc1)Nc1cc(Cl)cc(Cl)c1 [Formula 24]	7.82		
CN1CCC(N(C)Cc2ccc(OCCCN3CCC(Cc4c[nH]cn4)CC3)cc2)CC1 [Formula 25]	8.40		
c1ccc2c(c1)C1CC(CNCCCCc3c[nH]cn3)C2c2ccccc21 (stereo not shown) [Formula 27]	7.72		
CC(C)(C)c1ccc(S(=O)(=O)NCCCCc2c[nH]cn2)cc1 [Formula 30]	7.77		
S=C(NC1CCCCC1)N1CCC(c2cnc[nH]2)CC1 [Thioperamide, thioperamide]			effect on baseline Evans blue leakage (dye leakage due to i.d. saline administration) [1]: Neither CTM (1.0 mg/kg, i.v.), THIO (1.0 mg/kg, i.v.) nor CLOB (0.3 mg/kg, i.v.) had any effect; effect of H3 antagonist alone on cutaneous permeability elicited by compound 48/80 ([1]; listed as THIO): no observable effect; effect of H3 antagonist alone on cutaneous permeability elicited by compound 48/80 ([1]; listed as thioperamide): does not alter

The next lines start with results.

pKi [2]	pKi [3]	Structure (SMILES)	further results
7.26		O=C(c1cnc2ccccc2c1)N1CCC(Cc2c[nH]cn2)CC1 [Formula 17]	
9.15		O=C(CCN1CCC(Cc2c[nH]cn2)CC1)NCCc1ccc(Cl)cc1 [Formula 23]	
8.52	8.70	Clc1ccc(C(=C2CCN(CCCCc3c[nH]cn3)CC2)c2ccccn2)cc1 [Formula 26]	
8.00	6.51	Clc1ccc(C(CCNCCCCc2c[nH]cn2)c2ccccn2)cc1 (stereo not shown) [Formula 28]	
8.10	8.30	Clc1ccc(C(=C2CCN(CCCCCc3c[nH]cn3)CC2)c2ccccn2)cc1 [Formula 29]	
6.33		C/C(=C\C(=O)Nc1ccc(Cl)cc1)c1ccc(Cc2c[nH]cn2)cc1 [Formula 31]	
7.72		O=C(NCCCCc1c[nH]cn1)C1(c2ccc(Cl)cc2)CCC1 [Formula 32]	
8.15		O=C(/C=C/c1ccc(Cc2c[nH]cn2)cc1)NCCc1ccc(Cl)cc1 [Formula 33]	
